Legend:
PANC-1 [1] = test: Inhibition of autophagy in human PANC-1 cells cultured in nutrient-deprived medium assessed as accumulation of LC3-2 expression at 25 uM after 6 hrs by Western blot analysis relative to control; type: functional
PANC-1 [2] = test: Inhibition of autophagy in human PANC-1 cells cultured in nutrient-deprived medium assessed as inhibition of LC3-2 expression at […] after 6 hrs by Western blot analysis relative to control; type: functional

Row | Structure (SMILES) | fold change (FC) (PANC-1 [1]) | fold change (FC) (PANC-1 [2])
1 | CCN(CC)CCCC(C)Nc1ccnc2cc(Cl)ccc12 (configuration not stated) [CHLOROQUINE] | 2 | –
2 | Cn1cnc(N)c2ncnc1-2 [3-METHYLADENINE] | – | 2

Source: ChEMBL document CHEMBL4680108, “Ancistrolikokine E, a 5,8'-Coupled Naphthylisoquinoline Alkaloid, Eliminates the Tolerance of Cancer Cells to Nutrition Starvation by Inhibition of the Akt/mTOR/Autophagy Signaling Pathway” (2018)
